Assay results reported in US11168086B2, “Methods of synthesizing pyrazine compounds” (Hoffmann-La Roche Inc., priority 2015, dated 2021).

The molecules below were run on HBV (assay: HBV inhibition assay: anti-HBV activity in vitro in HepG2.2.15 cells (extracellular HBV DNA by qPCR)). Conditions: Hepatitis B virus, 120 h, five days after compound treatment, extracellular HBV DNA in culture supernatant by qPCR, concentration at which HBV replication is inhibited by 50%.
Type: cell-based
Summary of the method: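 HepG2.2.15 cells (stably carrying HBV genome) treated with half-log serially diluted compounds at 0.5% DMSO final for five days. Extracellular HBV DNA in supernatant quantified by qPCR after Proteinase K digestion; EC50 is concentration giving 50% inhibition of replication.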
Molecule `C[C@H]1Cn2ncc(N3CC(c4cccc(F)n4)OC3=O)c2CN1C(=O)Nc1cc(F)c(F)c(F)c1` (stereo partly drawn) [Example 411, (6S)-3-[5-(6-fluoro-2-pyridyl)-2-oxo-oxazolidin-3-yl]-6-methyl-N-(3,4,5-trifluorophenyl)-6,7-dihydro-4H-pyrazolo[1,5-a]pyrazine-5-carboxamide] has an EC50 of 18 nM. Work on `C[C@H]1Cn2ncc(N3CC(c4cnn(C)c4)CC3=O)c2CN1C(=O)Nc1cc(F)c(F)c(F)c1` (stereo partly drawn) [Example 412, (6S)-6-methyl-3-[4-(1-methylpyrazol-4-yl)-2-oxo-pyrrolidin-1-yl]-N-(3,4,5-trifluorophenyl)-6,7-dihydro-4H-pyrazolo[1,5-a]pyrazine-5-carboxamide] yielded an EC50 of 21 nM. `C[C@H]1Cn2ncc(N3CC(c4cncnc4)CC3=O)c2CN1C(=O)Nc1cc(F)c(F)c(F)c1` (stereo partly drawn) [Example 413, (6S)-6-methyl-3-(2-oxo-4-pyrimidin-5-yl-pyrrolidin-1-yl)-N-(3,4,5-trifluorophenyl)-6,7-dihydro-4H-pyrazolo[1,5-a]pyrazine-5-carboxamide] was tested, and the EC50 was 76 nM. `C[C@H]1Cn2ncc(N3CC(Nc4ncc(F)cn4)CC3=O)c2CN1C(=O)Nc1cc(F)c(F)c(F)c1` (stereo partly drawn) [Example 414, (6S)-3-[4-[(5-fluoropyrimidin-2-yl)amino]-2-oxo-pyrrolidin-1-yl]-6-methyl-N-(3,4,5-trifluorophenyl)-6,7-dihydro-4H-pyrazolo[1,5-a]pyrazine-5-carboxamide] was tested, and the EC50 was 17 nM. `C[C@H]1Cn2ncc(N3C[C@H](Oc4ncccn4)CC3=O)c2CN1C(=O)Nc1cc(F)c(F)c(F)c1` [Example 415, (6S)-6-methyl-3-[(4R)-2-oxo-4-pyrimidin-2-yloxy-pyrrolidin-1-yl]-N-(3,4,5-trifluorophenyl)-6,7-dihydro-4H-pyrazolo[1,5-a]pyrazine-5-carboxamide] gave an EC50 of 25 nM. For `C[C@H]1Cn2ncc(N3Cc4ccnn4CC3=O)c2CN1C(=O)Nc1cc(F)c(F)c(F)c1` [Example 419, (6S)-6-methyl-3-(6-oxo-4,7-dihydropyrazolo[1,5-a]pyrazin-5-yl)-N-(3,4,5-trifluorophenyl)-6,7-dihydro-4H-pyrazolo[1,5-a]pyrazine-5-carboxamide], the EC50 was 71 nM. `C[C@H]1Cn2ncc(N3CC4(CCC4)CC3=O)c2CN1C(=O)Nc1cc(F)c(F)c(F)c1` [Example 421, (6S)-6-methyl-3-(7-oxo-6-azaspiro[3.4]octan-6-yl)-N-(3,4,5-trifluorophenyl)-6,7-dihydro-4H-pyrazolo[1,5-a]pyrazine-5-carboxamide] gave an EC50 of 14 nM. For `C[C@H]1Cn2ncc(N3CC4(CCC4)C(O)C3=O)c2CN1C(=O)Nc1cc(F)c(F)c(F)c1` (stereo partly drawn) [Example 422, (6S)-3-(8-hydroxy-7-oxo-6-azaspiro[3.4]octan-6-yl)-6-methyl-N-(3,4,5-trifluorophenyl)-6,7-dihydro-4H-pyrazolo[1,5-a]pyrazine-5-carboxamide], the EC50 was 65 nM. `C[C@H]1Cn2ncc(N3CC4(CC4)C(O)C3=O)c2CN1C(=O)Nc1cc(F)c(F)c(F)c1` (stereo partly drawn) [Example 424, (6S)-3-(7-hydroxy-6-oxo-5-azaspiro[2.4]heptan-5-yl)-6-methyl-N-(3,4,5-trifluorophenyl)-6,7-dihydro-4H-pyrazolo[1,5-a]pyrazine-5-carboxamide] gave an EC50 of 44 nM. With `CC1CCN(c2cnn3c2CN(C(=O)Nc2cc(F)c(F)c(F)c2)[C@@H](C)C3)C(=O)O1` (stereo partly drawn) [Example 425, (6S)-6-methyl-3-(6-methyl-2-oxo-1,3-oxazinan-3-yl)-N-(3,4,5-trifluorophenyl)-6,7-dihydro-4H-pyrazolo[1,5-a]pyrazine-5-carboxamide] the EC50 was 87 nM. `CC1CCOC(=O)N1c1cnn2c1CN(C(=O)Nc1cc(F)c(F)c(F)c1)[C@@H](C)C2` (stereo partly drawn) [Example 426, (6S)-6-methyl-3-(4-methyl-2-oxo-1,3-oxazinan-3-yl)-N-(3,4,5-trifluorophenyl)-6,7-dihydro-4H-pyrazolo[1,5-a]pyrazine-5-carboxamide] gave an EC50 of 29 nM. `C[C@H]1Cn2ncc(N3C[C@@H](Oc4ncccn4)[C@H](O)C3=O)c2CN1C(=O)Nc1cc(F)c(F)c(F)c1` [Example 428, (6S)-3-[(3S,4R)-3-hydroxy-2-oxo-4-pyrimidin-2-yloxy-pyrrolidin-1-yl]-6-methyl-N-(3,4,5-trifluorophenyl)-6,7-dihydro-4H-pyrazolo[1,5-a]pyrazine-5-carboxamide] was tested, and the EC50 was 6 nM. With `C[C@@H]1[C@@H](Oc2ncccn2)[C@H](O)C(=O)N1c1cnn2c1CN(C(=O)Nc1cc(F)c(F)c(F)c1)[C@@H](C)C2` [Example 436, (6S)-3-[(2R,3R,4S)-4-hydroxy-2-methyl-5-oxo-3-pyrimidin-2-yloxy-pyrrolidin-1-yl]-6-methyl-N-(3,4,5-trifluorophenyl)-6,7-dihydro-4H-pyrazolo[1,5-a]pyrazine-5-carboxamide] the EC50 was 16 nM. `C[C@H]1Cn2ncc(N3CC(c4ncccn4)CC3=O)c2CN1C(=O)Nc1cc(F)c(F)c(F)c1` (stereo partly drawn) [Example 437, (6S)-6-methyl-3-(2-oxo-4-pyrimidin-2-yl-pyrrolidin-1-yl)-N-(3,4,5-trifluorophenyl)-6,7-dihydro-4H-pyrazolo[1,5-a]pyrazine-5-carboxamide] was tested, and the EC50 was 6 nM.
